Among the test systems are RPMI-8226; OVCAR-3; HOP-62; SF-268; DU-145; CAKI-1; BT-549; SNB-19; HL-60; RXF 393; TK-10; NCI-H23; SK-MEL-5; SK-OV-3; NCI/ADR-RES; NCI-H226; T47D; LOX IMVI; UO-31; SK-MEL-28.
What all share (assay): NCI anticancer screen, dose series, 48 h

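Assay format: 96-well plates, 48-hour exposure. The concentration for 50% growth inhibition is given as GI50.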 Activity calls are given as the source filed them. Rule as the data show it: active = GI50 up to about 1.1 µM and inactive = higher.

Take `C=C1CC2(OC1=O)c1ccccc1C=Cc1ccccc12`: the GI50 was 1.42 µM (inactive) in the experiment on RPMI-8226; 4.61 µM (inactive) in the experiment on OVCAR-3; 12.6 µM (inactive) in the experiment on HOP-62; 7.23 µM (inactive) in the experiment with SF-268; 11.5 µM (inactive) with DU-145; 3.05 µM (inactive) in the experiment with CAKI-1. For the same compound, the GI50 in the experiment with BT-549 was 1.83 µM (inactive); in the experiment on SNB-19 it was 16 µM (inactive); in the experiment with HL-60, 0.661 µM (active); in the experiment on RXF 393, 3.19 µM (inactive); in the experiment with TK-10, 5.86 µM (inactive); in the experiment on NCI-H23, 6.32 µM (inactive). Also, the GI50 in the experiment with SK-MEL-5 is 7.33 µM (inactive); in the experiment with SK-OV-3, 16.9 µM (inactive); with NCI/ADR-RES, 1.64 µM (inactive); in the experiment with NCI-H226 it was 5.08 µM (inactive); in the experiment on T47D, 1.93 µM (inactive); in the experiment with LOX IMVI, 1.38 µM (inactive). The values for the GI50 in the experiment on UO-31 and with SK-MEL-28 were 8.3 µM (inactive) and 4.34 µM (inactive), respectively.

For the compound `COc1cc2cc(C(=O)N3CC(CCl)c4c3cc([N+](C)(C)Cc3ccc([N+](=O)[O-])n3C)c3ccccc43)[nH]c2c(OC)c1OC` (stereo unspecified), the GI50 with RPMI-8226 was 0.316 µM (active); in the experiment on OVCAR-3 it was 4.06 µM (inactive); in the experiment with HOP-62 it was 4.02 µM (inactive); in the experiment on SF-268, 2.62 µM (inactive); with DU-145, 0.935 µM (active); in the experiment on CAKI-1, 1.71 µM (inactive). For the same compound, the GI50 was 2.51 µM (inactive) with BT-549; 3.44 µM (inactive) in the experiment on SNB-19; 1.15 µM (inactive) in the experiment with HL-60; 0.0107 µM (active) in the experiment with RXF 393; 2.67 µM (inactive) in the experiment on TK-10; 0.472 µM (active) in the experiment on NCI-H23. Also, the GI50 was 1.32 µM (inactive) with SK-MEL-5; 3.81 µM (inactive) in the experiment with SK-OV-3; 0.849 µM (active) in the experiment on NCI/ADR-RES; 1.87 µM (inactive) with NCI-H226; 3.23 µM (inactive) with T47D; 2.31 µM (inactive) with LOX IMVI. In addition, the values for the GI50 with UO-31 and in the experiment with SK-MEL-28 were 1.17 µM (inactive) and 2.33 µM (inactive), respectively.

Regarding `C[C@]12C=CC(=O)C=C1CC[C@@H]1[C@@H]2C(=O)C[C@@]2(C)[C@H]1CC[C@]2(O)C(=O)CO` [PREDNISONE], the GI50 with RPMI-8226, in the experiment with OVCAR-3, with HOP-62, in the experiment on SF-268, in the experiment with DU-145 and with CAKI-1 was > 100 µM (inactive) each time. In addition, the GI50 with BT-549, in the experiment on SNB-19, in the experiment on HL-60, with RXF 393, in the experiment with TK-10 and with NCI-H23 was > 100 µM (inactive) in each case. The GI50 in the experiment on SK-MEL-5, in the experiment with SK-OV-3, in the experiment on NCI/ADR-RES, in the experiment on NCI-H226, in the experiment with T47D and in the experiment with LOX IMVI was > 100 µM (inactive) throughout. The GI50 in the experiment on UO-31 and with SK-MEL-28 was > 100 µM (inactive) in each case.

Regarding `O=C(O)C1CCCN(CCc2c[nH]c3ccccc23)C1` (stereo unspecified), the GI50 in the experiment on RPMI-8226, with OVCAR-3, in the experiment with HOP-62, in the experiment on SF-268, with DU-145 and with CAKI-1 was > 100 µM (inactive) each time. In addition, the GI50 in the experiment with BT-549, in the experiment on SNB-19, in the experiment on HL-60, in the experiment with RXF 393, in the experiment on TK-10 and in the experiment with NCI-H23 was > 100 µM (inactive) in each case. Moreover, the GI50 with SK-OV-3, with NCI/ADR-RES, in the experiment with NCI-H226, in the experiment on T47D, with LOX IMVI and in the experiment on SK-MEL-28 was > 100 µM (inactive) throughout.

`CC1=C(C#N)C(=O)N(/N=C/c2ccc(Cl)cc2)C(=O)/C1=c1\o/c(=C2/C(=O)N(/N=C/c3ccc(Cl)cc3)C(=O)C(C#N)=C2C)c2nccnc12`: the GI50 with RPMI-8226 is 60.7 µM (inactive); in the experiment with OVCAR-3 it was > 100 µM (inactive); with SF-268 it was 47.3 µM (inactive); in the experiment on DU-145, > 100 µM (inactive); in the experiment on CAKI-1 it was > 100 µM (inactive); with BT-549, > 100 µM (inactive). Moreover, the GI50 with SNB-19 is > 100 µM (inactive); in the experiment with HL-60, 84.5 µM (inactive); in the experiment with RXF 393, 19.5 µM (inactive); in the experiment on NCI-H23 it was > 100 µM (inactive); with SK-MEL-5 it was 96.6 µM (inactive); in the experiment with SK-OV-3 it was > 100 µM (inactive). Moreover, the GI50 is > 100 µM (inactive) in the experiment with NCI/ADR-RES; 78.2 µM (inactive) in the experiment with NCI-H226; > 100 µM (inactive) in the experiment on T47D; > 100 µM (inactive) with LOX IMVI; 85.7 µM (inactive) in the experiment with UO-31; > 100 µM (inactive) in the experiment with SK-MEL-28.

For the compound `N#C/C(=C\c1ccc2[nH]ccc2c1)C(=O)c1ccc(O)c(O)c1`, the GI50 in the experiment on RPMI-8226 is > 73.5 µM (inactive); with OVCAR-3, 9.42 µM (inactive); in the experiment with HOP-62, > 52 µM (inactive); with SF-268, > 64.9 µM (inactive); in the experiment on DU-145 it was 45.7 µM (inactive); with CAKI-1, > 100 µM (inactive). The GI50 with BT-549 is 24.5 µM (inactive); in the experiment with SNB-19 it was 50 µM (inactive); in the experiment on HL-60, 27.5 µM (inactive); in the experiment with RXF 393 it was > 94 µM (inactive); with TK-10 it was > 72.1 µM (inactive); in the experiment on NCI-H23 it was > 100 µM (inactive). The GI50 was > 75.2 µM (inactive) in the experiment with SK-MEL-5; 59.4 µM (inactive) in the experiment on SK-OV-3; 49.4 µM (inactive) with NCI/ADR-RES; > 71.3 µM (inactive) in the experiment on NCI-H226; 62.8 µM (inactive) in the experiment with T47D; 63.7 µM (inactive) in the experiment on LOX IMVI. Further, the GI50 in the experiment with UO-31 is 45 µM (inactive); in the experiment with SK-MEL-28, > 100 µM (inactive).

As to `CC1(C)Cc2c(c3ccccc3c3nc4c(nc23)c2c(c3ccccc34)OC(C)(C)C2)O1`, the GI50 in the experiment with RPMI-8226, in the experiment on OVCAR-3, with HOP-62, with SF-268, in the experiment with DU-145 and in the experiment on CAKI-1 was > 100 µM (inactive) each time. The GI50 with BT-549, with SNB-19, with HL-60, with RXF 393, in the experiment with TK-10 and with NCI-H23 was > 100 µM (inactive) throughout. Besides, the GI50 in the experiment on SK-MEL-5, in the experiment with SK-OV-3, in the experiment with NCI/ADR-RES, in the experiment on T47D, in the experiment on LOX IMVI and in the experiment on SK-MEL-28 was > 100 µM (inactive) in each case.

`Cn1ccc(C(=O)NCCN(CCNC(=O)c2ccn(C)c(=O)c2O)CCNC(=O)c2cccc(=O)n2O)c(O)c1=O`: the GI50 in the experiment with RPMI-8226, in the experiment on OVCAR-3, in the experiment with HOP-62, with SF-268, with DU-145 and in the experiment on CAKI-1 was > 100 µM (inactive) throughout. The GI50 with BT-549, in the experiment on SNB-19, with HL-60, with RXF 393, in the experiment on NCI-H23 and with SK-MEL-5 was > 100 µM (inactive) in each case. In addition, the GI50 in the experiment on SK-OV-3, in the experiment with NCI/ADR-RES, in the experiment on NCI-H226, in the experiment on T47D, in the experiment on LOX IMVI and in the experiment with UO-31 was > 100 µM (inactive) each time. For the same compound, the GI50 with SK-MEL-28 is > 100 µM (inactive).

As to `CCOC(=O)c1c2ccccc2n2c(=O)n(-c3ccccc3)nnc12`, the GI50 is 15.3 µM (inactive) with RPMI-8226; 17.3 µM (inactive) in the experiment on OVCAR-3; 27.5 µM (inactive) with HOP-62; > 100 µM (inactive) with SF-268; > 100 µM (inactive) with DU-145; > 91.4 µM (inactive) in the experiment with CAKI-1. For the same compound, the GI50 in the experiment on BT-549 is > 100 µM (inactive); with SNB-19 it was > 100 µM (inactive); with HL-60, 23.8 µM (inactive); with RXF 393, > 55.6 µM (inactive); with TK-10, > 100 µM (inactive); in the experiment with NCI-H23, > 87.1 µM (inactive). Further, the GI50 was 15.7 µM (inactive) in the experiment on SK-MEL-5; > 58.3 µM (inactive) in the experiment with NCI/ADR-RES; > 40.2 µM (inactive) in the experiment with NCI-H226; 9.08 µM (inactive) with T47D; 7.93 µM (inactive) in the experiment with LOX IMVI; 74.8 µM (inactive) in the experiment on UO-31. The GI50 with SK-MEL-28 was > 100 µM (inactive).

With `CC1=NN2C(=O)CC(=O)N=C2S1`, the GI50 in the experiment with RPMI-8226, in the experiment on OVCAR-3, with HOP-62, with SF-268, in the experiment with DU-145 and in the experiment on CAKI-1 was > 100 µM (inactive) throughout. Also, the GI50 in the experiment with BT-549, with SNB-19, in the experiment on HL-60, with RXF 393, in the experiment with TK-10 and in the experiment on NCI-H23 was > 100 µM (inactive) each time. Moreover, the GI50 with SK-MEL-5, in the experiment with SK-OV-3, with NCI/ADR-RES, in the experiment with NCI-H226, in the experiment with T47D and with LOX IMVI was > 100 µM (inactive) each time. Also, the GI50 in the experiment on SK-MEL-28 was > 100 µM (inactive).

The record behind these values is ChEMBL document CHEMBL1201862, “PubChem BioAssay data set” (2004).
